According to patent US20080292617A1, “ANTIBODY AGAINST A PEPTIDE DERIVED FROM HUMAN MUTANT LAMIN A PROTEIN AND USES THEREOF” (THE TRUSTEES OF COLUMBIA UNIVERSITY IN THE CITY OF NEW YORK, priority 2005, published 2008):

Key:
[1] = system: progerin (LMNA G608G) in HGPS fibroblasts; test: Immunofluorescence localization of progerin after FTI-277 treatment; assay type: cell-based, human
Text: Indirect immunofluorescence and Western blot: Primary cultures of dermal fibroblasts were processed for indirect immunofluorescence as described previously (Paradisi et al, 2005). Rabbit antibodies directed against A-type and B-type lamins were described previously (Chaudhary et al, 1993; Cance et al, 1992). Goat anti-lamin B1 M-20 and anti-prelamin A C-20 (Santa Cruz), monoclonal antibodies anti-emerin 4G5 (Novocastra), anti-nucleoporin Nup153 clone 414 (Covance), anti-lamin A Jo14 (Serotec), and anti-Ki-67 (BD Bioscience) were purchased. Secondary antibodies were affinity purified Alexa Fluor 488 goat or donkey IgG antibodies (Molecular Probes) and Cy3-conjugated IgG antibodies (Jackson ImmunoResearch laboratories). All samples were counterstained with DAPI (Sigma-Aldrich). When cells were treated daily for 3 days with farnesyltransferase inhibitor FTI-277 (Calbiochem), the culture medium was supplemented with 20 μM FTI-277 or DMSO prior to immunofluorescence analysis as described previously (Adjei et al, 2000). Images were processed using Adobe Photoshop. For Western blot analysis, total cellular protein extracts were isolated from dermal fibroblast cultures at different population doublings (25 to 55) and processed as described previously (Paradisi et al, 2005).
To determine the role of farnesylation in HGPS nuclear abnormalities, control and HGPS fibroblast cultures (PPDs 35-38) were treated daily with 20 μM farnesyltransferase inhibitor FTI-277 (Adjei et al, 2000). After 48 h treatment, the percentage of HGPS nuclei with abnormal shapes decreased from 31% to 8% (FIG. 6A). The intranuclear repartition of prelamin A and the localization of LMNA G608G differed greatly between treated and un-treated cells; prelamin A was not detectable in control or HGPS cells (FIG. 6B). […] Progerin was also detected in nuclear foci similarly to wild-type prelamin A (FIG. 6B).

HGPS fibroblast cultures = test: Scoring of abnormally shaped nuclei in fibroblast cultures treated with farnesyltransferase inhibitor; assay type: cell-based, human; details: 20 μM FTI-277 daily, after 48 h treatment, HGPS fibroblasts PPDs 35-38; decreased from 31%
Text: Indirect immunofluorescence and Western blot: Primary cultures of dermal fibroblasts were processed for indirect immunofluorescence as described previously (Paradisi et al, 2005). Rabbit antibodies directed against A-type and B-type lamins were described previously (Chaudhary et al, 1993; Cance et al, 1992). Goat anti-lamin B1 M-20 and anti-prelamin A C-20 (Santa Cruz), monoclonal antibodies anti-emerin 4G5 (Novocastra), anti-nucleoporin Nup153 clone 414 (Covance), anti-lamin A Jo14 (Serotec), and anti-Ki-67 (BD Bioscience) were purchased. Secondary antibodies were affinity purified Alexa Fluor 488 goat or donkey IgG antibodies (Molecular Probes) and Cy3-conjugated IgG antibodies (Jackson ImmunoResearch laboratories). All samples were counterstained with DAPI (Sigma-Aldrich). […]
Quantification: The percentages of ki-67 positive cells, of misshapen or blebbing nuclei, and senescence β-gal positive cells were determined by direct count of 300 cells per coverslip in triplicate, and from three independent experiments. […]
To determine the role of farnesylation in HGPS nuclear abnormalities, control and HGPS fibroblast cultures (PPDs 35-38) were treated daily with 20 μM farnesyltransferase inhibitor FTI-277 (Adjei et al, 2000). […] Progerin was also detected in nuclear foci similarly to wild-type prelamin A (FIG. 6B).

`COC(=O)[C@H](CCSC)NC(=O)c1ccc(NC[C@@H](N)CS)cc1-c1ccccc1` [FTI-277] was tested, and the “progerin localization (anti-LMNA G608G staining)” value (shortened to “progerin localization”) ([1]; 20 μM FTI-277, 76 h after treatment) was “progerin was totally depleted from the NE in most nuclei”, the “progerin localization” value ([1]; 20 μM FTI-277, after 24 h treatment) was “progerin was still incorporated into the nuclear lamina” and the “progerin localization” value ([1]; 20 μM FTI-277, after 48 h treatment) was “progerin was progressively depleted from the NE and lamina”. For the same compound, the “percentage of HGPS nuclei with abnormal shapes” value (HGPS fibroblast cultures) was 8%.
